# Measurements as given in patent publication US20260250257A1, “ANTIBACTERIAL AND SYNERGISTIC ACTIVE COMPOUND AND USE THEREOF” (EAST CHINA UNIVERSITY OF SCIENCE AND TECHNOLOGY, priority 2023, published 2026).
# System: ATCC25922 strain (Escherichia coli)
# Experiment: Checkerboard antibacterial synergistic activity test with polymyxin E (FIC)
# Assay type: cell-based
# Set-up: key: FIC≤0.5 synergy; 0.5–1 additive; 1–2 indifferent; ≥2 antagonism
# Conditions: combined with polymyxin E
# Description: (§1) Polymyxin E was diluted in sterile MH broth medium to concentrations of 16, 8, 4, 2, 1, 0.5, 0.25, 0.125, 0.0625, 0.031, and 0.015 μg/ml, and the drug to be tested was diluted to concentrations of 256, 128, 64, 32, 16, 8, and 4 μg/ml. According to the checkerboard method, combinations of the drug to be tested and polymyxin at different concentrations in ascending order were placed into a 96-well plate, and corresponding blank control groups were set up. 50 μl of the drug solution was added to each well, then 100 μl of bacterial liquid was added, and incubated in a 37° C. incubator for 16 hours. […] Calculation and judgment criteria:
# (§2) Fractional Inhibitory Concentration (FIC) is calculated as follows: […]
# (§3) Judgment criteria: FIC≤0.5: synergistic effect; 0.5<FIC<1: additive effect; 1<FIC<2: indifferent effect; FIC≥2: antagonistic effect.
# (§4) In the table: ATCC19606 strain is Acinetobacter baumannii, ATCC25922 strain is Escherichia coli, ATCC13883 strain is Klebsiella pneumoniae, ATCC9027 strain is Pseudomonas aeruginosa. All four strains were purchased from ATCC.
row,SMILES,Synergistic activity (FIC value) ATCC25922
1,NC(N)=Nc1nc(-c2cccc3ccccc23)cs1 [Compound I-55],0.38
2,NC(N)=Nc1nc(-c2cccc(Oc3ccc(I)cc3I)c2)cs1 [Compound I-97],0.2
3,Nc1cc(Oc2ccccc2)cc(-c2c[nH]c(N=C3NCCCN3)n2)c1 [Compound I-135],0.51
4,CC(C)=CCOc1ccc(-c2csc(N=C(N)N)n2)cc1 [Compound I-48],0.51
5,NC(N)=Nc1nc(-c2cccc(NC(=O)Nc3ccccc3)c2)cs1 [Compound I-131],0.14
6,NC(N)=Nc1nc(-c2c(I)cc(I)cc2I)cs1 [Compound I-54],0.39
7,O=[N+]([O-])c1cc(-c2nc(N=C3NCCCN3)sc2Br)ccc1Br [Compound I-176],0.38
8,COc1ccc(Oc2cc(Br)cc(-c3csc(N=C4NCCCN4)n3)c2)c(OC)c1 [Compound I-159],0.14

# System: ATCC13883 strain (Klebsiella pneumoniae)
# Experiment: as above
# Assay type: cell-based
# Set-up: key: FIC≤0.5 synergy; 0.5–1 additive; 1–2 indifferent; ≥2 antagonism
# Conditions: combined with polymyxin E
# Description: as §1, §2, §3, §4
row,SMILES,Synergistic activity (FIC value) ATCC13883
1,NC(N)=Nc1nc(-c2cccc3ccccc23)cs1 [Compound I-55],0.31
2,NC(N)=Nc1nc(-c2cccc(Oc3ccc(I)cc3I)c2)cs1 [Compound I-97],0.13
3,Nc1cc(Oc2ccccc2)cc(-c2c[nH]c(N=C3NCCCN3)n2)c1 [Compound I-135],0.75
4,CC(C)=CCOc1ccc(-c2csc(N=C(N)N)n2)cc1 [Compound I-48],0.51
5,NC(N)=Nc1nc(-c2cccc(NC(=O)Nc3ccccc3)c2)cs1 [Compound I-131],0.09
6,NC(N)=Nc1nc(-c2c(I)cc(I)cc2I)cs1 [Compound I-54],0.33
7,O=[N+]([O-])c1cc(-c2nc(N=C3NCCCN3)sc2Br)ccc1Br [Compound I-176],0.31
8,COc1ccc(Oc2cc(Br)cc(-c3csc(N=C4NCCCN4)n3)c2)c(OC)c1 [Compound I-159],0.09

# System: ATCC9027 strain (Pseudomonas aeruginosa)
# Experiment: as above
# Assay type: cell-based
# Set-up: key: FIC≤0.5 synergy; 0.5–1 additive; 1–2 indifferent; ≥2 antagonism
# Conditions: combined with polymyxin E
# Description: as §1, §2, §3, §4
row,SMILES,Synergistic activity (FIC value) ATCC9027
1,NC(N)=Nc1nc(-c2cccc3ccccc23)cs1 [Compound I-55],0.53
2,NC(N)=Nc1nc(-c2cccc(Oc3ccc(I)cc3I)c2)cs1 [Compound I-97],0.28
3,Nc1cc(Oc2ccccc2)cc(-c2c[nH]c(N=C3NCCCN3)n2)c1 [Compound I-135],0.53
4,CC(C)=CCOc1ccc(-c2csc(N=C(N)N)n2)cc1 [Compound I-48],0.75
5,NC(N)=Nc1nc(-c2cccc(NC(=O)Nc3ccccc3)c2)cs1 [Compound I-131],0.06
6,NC(N)=Nc1nc(-c2c(I)cc(I)cc2I)cs1 [Compound I-54],0.62
7,O=[N+]([O-])c1cc(-c2nc(N=C3NCCCN3)sc2Br)ccc1Br [Compound I-176],0.53
8,COc1ccc(Oc2cc(Br)cc(-c3csc(N=C4NCCCN4)n3)c2)c(OC)c1 [Compound I-159],0.06

# System: ATCC19606 strain (Acinetobacter baumannii)
# Experiment: as above
# Assay type: cell-based
# Set-up: key: FIC≤0.5 synergy; 0.5–1 additive; 1–2 indifferent; ≥2 antagonism
# Conditions: combined with polymyxin E
# Description: as §1, §2, §3, §4
row,SMILES,Synergistic activity (FIC value) ATCC19606
1,NC(N)=Nc1nc(-c2cccc3ccccc23)cs1 [Compound I-55],0.13
2,NC(N)=Nc1nc(-c2cccc(Oc3ccc(I)cc3I)c2)cs1 [Compound I-97],0.04
3,Nc1cc(Oc2ccccc2)cc(-c2c[nH]c(N=C3NCCCN3)n2)c1 [Compound I-135],0.26
4,CC(C)=CCOc1ccc(-c2csc(N=C(N)N)n2)cc1 [Compound I-48],0.16
5,NC(N)=Nc1nc(-c2cccc(NC(=O)Nc3ccccc3)c2)cs1 [Compound I-131],0.31
6,NC(N)=Nc1nc(-c2c(I)cc(I)cc2I)cs1 [Compound I-54],0.15
7,O=[N+]([O-])c1cc(-c2nc(N=C3NCCCN3)sc2Br)ccc1Br [Compound I-176],0.13
8,COc1ccc(Oc2cc(Br)cc(-c3csc(N=C4NCCCN4)n3)c2)c(OC)c1 [Compound I-159],0.31

# System: ATCC25922 strain (Escherichia coli)
# Experiment: Broth microdilution, antibacterial activity of the compound used alone
# Assay type: cell-based
# Conditions: not given
# Source text: (§5) The broth microdilution method was used to test the antibacterial effects of the compounds of the present invention against various Gram-negative bacterial strains when used alone.
row,SMILES,"Antibacterial activity of the compound of Formula I, ATCC25922"
1,NC(N)=Nc1nc(-c2cccc3ccccc23)cs1 [Compound I-55],256 µg/mL
2,NC(N)=Nc1nc(-c2cccc(Oc3ccc(I)cc3I)c2)cs1 [Compound I-97],256 µg/mL
3,Nc1cc(Oc2ccccc2)cc(-c2c[nH]c(N=C3NCCCN3)n2)c1 [Compound I-135],256 µg/mL
4,CC(C)=CCOc1ccc(-c2csc(N=C(N)N)n2)cc1 [Compound I-48],256 µg/mL
5,NC(N)=Nc1nc(-c2c(I)cc(I)cc2I)cs1 [Compound I-54],256 µg/mL
6,O=[N+]([O-])c1cc(-c2nc(N=C3NCCCN3)sc2Br)ccc1Br [Compound I-176],256 µg/mL
7,COc1ccc(Oc2cc(Br)cc(-c3csc(N=C4NCCCN4)n3)c2)c(OC)c1 [Compound I-159],256 µg/mL

# Same assay, conditions: read-out: Antibacterial activity of the compound of Formula I, ATCC25922
row,MIC,SMILES
1,256 µg/mL,NC(N)=Nc1nc(-c2cccc(NC(=O)Nc3ccccc3)c2)cs1 [Compound I-131]

# System: ATCC13883 strain (Klebsiella pneumoniae)
# Experiment: as above
# Assay type: cell-based
# Conditions: not given
# Source text: as §5
row,SMILES,"Antibacterial activity of the compound of Formula I, ATCC13883"
1,NC(N)=Nc1nc(-c2cccc3ccccc23)cs1 [Compound I-55],256 µg/mL
2,NC(N)=Nc1nc(-c2cccc(Oc3ccc(I)cc3I)c2)cs1 [Compound I-97],256 µg/mL
3,Nc1cc(Oc2ccccc2)cc(-c2c[nH]c(N=C3NCCCN3)n2)c1 [Compound I-135],256 µg/mL
4,CC(C)=CCOc1ccc(-c2csc(N=C(N)N)n2)cc1 [Compound I-48],256 µg/mL
5,NC(N)=Nc1nc(-c2c(I)cc(I)cc2I)cs1 [Compound I-54],256 µg/mL
6,O=[N+]([O-])c1cc(-c2nc(N=C3NCCCN3)sc2Br)ccc1Br [Compound I-176],256 µg/mL
7,COc1ccc(Oc2cc(Br)cc(-c3csc(N=C4NCCCN4)n3)c2)c(OC)c1 [Compound I-159],256 µg/mL

# Same assay, conditions: read-out: Antibacterial activity of the compound of Formula I, ATCC13883
row,MIC,SMILES
1,256 µg/mL,NC(N)=Nc1nc(-c2cccc(NC(=O)Nc3ccccc3)c2)cs1 [Compound I-131]

# System: ATCC9027 strain (Pseudomonas aeruginosa)
# Experiment: as above
# Assay type: cell-based
# Conditions: not given
# Source text: as §5
row,SMILES,"Antibacterial activity of the compound of Formula I, ATCC9027"
1,NC(N)=Nc1nc(-c2cccc3ccccc23)cs1 [Compound I-55],256 µg/mL
2,NC(N)=Nc1nc(-c2cccc(Oc3ccc(I)cc3I)c2)cs1 [Compound I-97],256 µg/mL
3,Nc1cc(Oc2ccccc2)cc(-c2c[nH]c(N=C3NCCCN3)n2)c1 [Compound I-135],256 µg/mL
4,CC(C)=CCOc1ccc(-c2csc(N=C(N)N)n2)cc1 [Compound I-48],256 µg/mL
5,NC(N)=Nc1nc(-c2c(I)cc(I)cc2I)cs1 [Compound I-54],256 µg/mL
6,O=[N+]([O-])c1cc(-c2nc(N=C3NCCCN3)sc2Br)ccc1Br [Compound I-176],256 µg/mL
7,COc1ccc(Oc2cc(Br)cc(-c3csc(N=C4NCCCN4)n3)c2)c(OC)c1 [Compound I-159],256 µg/mL

# Same assay, conditions: read-out: Antibacterial activity of the compound of Formula I, ATCC9027
row,MIC,SMILES
1,256 µg/mL,NC(N)=Nc1nc(-c2cccc(NC(=O)Nc3ccccc3)c2)cs1 [Compound I-131]

# System: ATCC19606 strain (Acinetobacter baumannii)
# Experiment: as above
# Assay type: cell-based
# Conditions: not given
# Source text: as §5
row,SMILES,"Antibacterial activity of the compound of Formula I, ATCC19606"
1,NC(N)=Nc1nc(-c2cccc3ccccc23)cs1 [Compound I-55],256 µg/mL
2,NC(N)=Nc1nc(-c2cccc(Oc3ccc(I)cc3I)c2)cs1 [Compound I-97],256 µg/mL
3,Nc1cc(Oc2ccccc2)cc(-c2c[nH]c(N=C3NCCCN3)n2)c1 [Compound I-135],256 µg/mL
4,CC(C)=CCOc1ccc(-c2csc(N=C(N)N)n2)cc1 [Compound I-48],256 µg/mL
5,NC(N)=Nc1nc(-c2c(I)cc(I)cc2I)cs1 [Compound I-54],256 µg/mL
6,O=[N+]([O-])c1cc(-c2nc(N=C3NCCCN3)sc2Br)ccc1Br [Compound I-176],256 µg/mL
7,COc1ccc(Oc2cc(Br)cc(-c3csc(N=C4NCCCN4)n3)c2)c(OC)c1 [Compound I-159],256 µg/mL

# Same assay, conditions: read-out: Antibacterial activity of the compound of Formula I, ATCC19606
row,MIC,SMILES
1,256 µg/mL,NC(N)=Nc1nc(-c2cccc(NC(=O)Nc3ccccc3)c2)cs1 [Compound I-131]
